Our source for the stability on storage values is patent publication US8507660B2 (priority 2009, dated 2013).

This series in a line: Storage stability of sialyl phosphate donors. Type of series: physicochemical. Conditions: −20° C., several months. As to the method: The reaction was complete in 5 h to give a mixture of α- and β-anomers. The sialyl α-phosphate 2a and sialyl β-phosphate 2b can be easily separated by silica gel column chromatography and are both stable at −20° C. for several months.

Molecules are shown by their SMILES.

On to `CCCCOP(=O)(OCCCC)OC1(C(=O)OC)CC(OC(C)=O)[C@@H](NC(C)=O)C([C@H](OC(C)=O)[C@@H](COC(C)=O)OC(C)=O)O1` (stereo partly shown) [2a], for which the stability on storage result is recorded as “stable”.
